Patent EP2441755A1 (Almirall, S.A., priority 2010, dated 2012)
Like-named read-outs stand apart in the source and are kept apart here.

Key:
JAK2 (aa 826-1132) = target: T1, JAK2 (aa 826-1132) (Homo sapiens, UniProt O60674); experiment: In vitro JAK kinase assay (TR-FRET), JAK2; format: biochemical; conditions: ATP 0.2 µM, poly (GT)-Biotin 20 nM, 30 minutes at room temperature
T1 construct: JAK2 (aa 826-1132); GST (N); purchased Carna Bioscences; host or cells: baculovirus expression system
Method: (§1) In vitro JAK kinase Assays
(§2) Compounds were screened for their ability to inhibit JAK1, JAK2 and JAK3 using the assays as indicated below.
(§3) The catalytic domains of human JAK1 (aa 850-1154), JAK2 (aa 826-1132), JAK3 (aa 795-1124) and Tyk2 (aa 871-1187) were expressed as N-terminal GST-fusion proteins using a baculovirus expression system and were purchased from Carna Bioscences. The enzymatic activity was assayed using as substrate a biotinylated peptide, poly (GT)-Biotin (CisBio). The peptide concentration in the reactions was 60 nM for JAK1, 20 nM for JAK2, 140 nM for JAK3 and 50 nM for Tyk2. The degree of phosphorylation was detected by TR-FRET (time-resolved fluorescence energy transfer).
(§4) IC50s of compounds were measured for each kinase in a reaction mixture containing the enzyme, ATP and the peptide in 8 mM MOPS (pH 7.0), 10 mM MgCl2, 0.05% β-mercaptoethanol, 0.45 mg/mL BSA. The ATP concentration in the reactions was 3 µM for JAK1, 0.2 µM for JAK2, 0.6 µM for JAK3 and 1.8 µM for Tyk2. The enzymatic reactions took place for 30 minutes at room temperature. Then, the reactions were stopped with 20 µL of quench detection buffer (50 mM HEPES, 0.5 M KF, EDTA 0.25 M, 0.1% (w/v) BSA, pH 7.5) containing 0.115 µg/mL of anti-phosphoTyr (PT66)-Cryptate (CisBio) and a variable concentration of SA-XL665 (CisBio) to keep the SA-B ratio constant. Incubate for 3 h and read on Victor 2V spectrofluorometer (PerkinElmer) set to read fluorescence resonance energy transfer.

LAD2 cells = LAD2 cells assay (degranulation, β-hexosaminidase release); format: cell-based; conditions: Homo sapiens, 0.5 h; IgE-sensitized LAD2 cells, 30 min with compound, activated with 125 ng/ml streptavidin; released β-hexosaminidase; read-out: LAD2IC50
Excerpt: LAD2 is a human mast cell line depending on stem cell factor for its survival, maturation and differentiation. This mast cell line was established by the NIH from bone marrow aspirates from a patient with mast cell sarcoma. LAD2 cells resemble CD34+ - derived human mast cells as they have granules containing tryptase, histamine and β-hexosaminidase. They also express c-kit and FcεRI (Kirshenbaum, et al., Leukemia Research 27: 677-682, 2003).
Sensitization of LAD2 cells
Cells were sensitized (0.2x10^6 cells/ml) in its normal growth factor (Complete StemPro-34 SFM, Gibco 10639-011 containing StemPro-34 nutrient supplement (1/40); glutamine (2 mM) and supplemented with 100 ng/ml SCF) by adding 100 ng/ml of biotin-labeled IgE (USBiological) overnight (16-18 h, 37º, 5% CO2) in a humidified atmosphere (90%).
Compounds were prepared from a 10^-2M stock in 100% DMSO to give seven successive 1/3 dilutions in DMSO. From each concentration, 2 further 1/10 dilutions were prepared in release buffer (137 mM NaCl, 2.70 mM KCI, 0.4 mM NaH2PO4, 5.6 mM (D)-glucose, 1.8 mM CaCl2, 1.3 mM MgSO4, 0.025% BSA). Finally, 5 µl from each diluted concentration were transferred into the assay plate (flat 96-well Nunc). The final compound concentrations tested ranged from 1x10^-5M to […] with a final proportion of DMSO in the assay of 0.1 %. Control wells were treated with 0.1 % DMSO.
Sensitized LAD2 cells were centrifuged (300 g, 3 min, R.T.) and washed 2 times with release buffer. Cells were resuspended in release buffer and adjusted to a density of 0.2x10^6/ml. 45 µl of the adjusted cells were transfered to the assay plate (∼10,000cells/well) containg 5 µl of the final compound concentrations. LAD2 cells were incubated with the compound for 30 min (37 °C, 5% CO2 90% of humidity) and then activated with 125 ng/ml of streptavidin (Pierce 21125) for 30 min (37 °C, 5% CO2, 90% of humidity). After the activation, cells were centrifuged at 1200 g, 10 min, 12 °C and supernatats were removed and transfered to another well for determination of released β-hexosaminidase. Empty wells were filled with 50 µl of release buffer for determination of intracellular β-hexosaminidase. Cells were lysed with 2 cycles of freeze-thaw.
Cells were incubated for 90 minutes, 37 °C with 1 mM β-hexosaminidase substrate (p-nitrophenyl N-acetyl-D-glucosamide, in citric buffer, pH 4.5). Reaction was stopped with 0.4 M glycine solution (pH 10.0) and the plate is read immediately at 405 nm.

[1] = target: T2, Recombinant human full-length Syk (Homo sapiens, UniProt P43405); experiment: Syk enzyme assay - radioactive filtration kinase assay; format: biochemical
T2 construct: Recombinant human full-length Syk was supplied by Millipore; purchased Millipore
Method: Syk Enzyme assay- Radioactive filtration kinase assay
Recombinant human full-length Syk was supplied by Millipore. The activity of Syk kinase was assessed using a radioactive filtration kinase assay. […] The reaction was initiated by the addition of 14.5 µl of 0.36 µCi [γ-^33P] ATP (10 mCi/ml, PerkinElmer). This was prepared in a half-area NBS plate (Corning) and allowed to stand at room temperature for 40 min. 15 µl of reaction mixture was transferred to a filter plate (Millipore) previously pre-wetted with a solution of 75 mM phosphoric acid. The reaction was terminated with the addition of 200 µl phosphoric acid. The filter plate was washed three times under vacuum on a vacuum manifold (Millipore cat# MSVMHTS00) at 8" Hg vacuum level with 200 µl phosphoric acid per wash. 30 µl Optiphase™ Supermix (PerkinElmer) was added to each test well and allowed to incubate for at least 1 h before counting. Radioactivity counting was performed in a Wallac MicroBeta®, and the tyrosine phosphorylation activity by Syk was calculated.

JAK3 (aa 795-1124) = target: T3, JAK3 (aa 795-1124) (Homo sapiens, UniProt P52333); experiment: In vitro JAK kinase assay (TR-FRET), JAK3; format: biochemical; conditions: ATP 0.6 µM, poly (GT)-Biotin 140 nM, 30 minutes at room temperature
T3 construct: JAK3 (aa 795-1124); GST (N); purchased Carna Bioscences; host or cells: baculovirus expression system
Method: as §1, §2, §3, §4

human JAK1 (aa 850-1154) = target: T4, human JAK1 (aa 850-1154) (Homo sapiens, UniProt P23458); experiment: In vitro JAK kinase assay (TR-FRET), JAK1; format: biochemical; conditions: ATP 3 µM, poly (GT)-Biotin 60 nM, 30 minutes at room temperature
T4 construct: human JAK1 (aa 850-1154); GST (N); purchased Carna Bioscences; host or cells: baculovirus expression system
Method: as §1, §2, §3, §4

[2] = Syk 1nM final, poly-GT 100 µg/ml, [γ-33P] ATP, 40 min at room temperature, read-out: Syk IC50

T1 sequence (O60674 826-1132): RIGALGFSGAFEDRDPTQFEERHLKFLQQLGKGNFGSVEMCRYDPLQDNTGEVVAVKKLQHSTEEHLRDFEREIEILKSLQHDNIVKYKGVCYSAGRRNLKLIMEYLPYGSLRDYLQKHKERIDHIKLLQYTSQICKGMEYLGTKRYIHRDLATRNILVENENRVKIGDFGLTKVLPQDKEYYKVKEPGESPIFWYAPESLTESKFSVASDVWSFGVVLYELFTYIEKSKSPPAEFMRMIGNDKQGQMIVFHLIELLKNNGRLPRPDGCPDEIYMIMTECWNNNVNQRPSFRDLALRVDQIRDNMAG
T3 sequence (P52333 795-1124): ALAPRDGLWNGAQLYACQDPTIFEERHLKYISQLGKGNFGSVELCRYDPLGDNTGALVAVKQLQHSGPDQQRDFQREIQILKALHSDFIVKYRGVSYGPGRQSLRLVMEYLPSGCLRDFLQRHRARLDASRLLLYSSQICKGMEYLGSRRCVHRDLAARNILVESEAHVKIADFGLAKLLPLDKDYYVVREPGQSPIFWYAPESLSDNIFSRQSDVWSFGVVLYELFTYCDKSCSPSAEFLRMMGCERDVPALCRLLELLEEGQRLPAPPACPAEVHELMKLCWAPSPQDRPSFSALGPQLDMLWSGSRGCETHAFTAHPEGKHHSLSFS
T4 sequence (P23458 850-1154): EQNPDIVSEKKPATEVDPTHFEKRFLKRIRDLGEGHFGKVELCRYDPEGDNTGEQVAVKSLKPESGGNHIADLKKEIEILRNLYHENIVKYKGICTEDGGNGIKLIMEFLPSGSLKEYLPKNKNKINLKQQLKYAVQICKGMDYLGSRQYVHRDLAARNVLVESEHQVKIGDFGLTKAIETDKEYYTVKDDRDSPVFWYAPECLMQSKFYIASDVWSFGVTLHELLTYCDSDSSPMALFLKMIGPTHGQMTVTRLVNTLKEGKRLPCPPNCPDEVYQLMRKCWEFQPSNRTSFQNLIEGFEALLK

Which IC50 (JAK2 (aa 826-1132)) does the source give for O=C(O)c1cccc(C(=O)Nc2cc(Nc3cnccn3)nc(-c3ccnc(N4CCNCC4)c3)c2)c1 [Example 88, 3-({[2'-Piperazin-1-yl-6-(pyrazin-2-ylamino)-2,4'-bipyridin-4-yl]amino}carbonyl) benzoic acid] here?
Its IC50 is under 100 nM.

What about the IC50 (LAD2 cells) of the same molecule?
The IC50 was 81 nM.

What about the IC50 [1, 2] of the same molecule?
The IC50 was 6 nM.

And the IC50 (JAK3 (aa 795-1124))?
The IC50 was 100 to 1000 nM.

How did the IC50 (JAK2 (aa 826-1132)) turn out when O=C(Nc1cc(Nc2cnccn2)nc(-c2ccnc(N3CCNCC3)c2)c1)c1cccnc1 [Example 85, N-[2'-Piperazin-1-yl-6-(pyrazin-2-ylamino)-2,4'-bipyridin-4-yl]nicotinamide] was run?
The IC50 was under 100 nM.

And the IC50 (LAD2 cells)?
Its IC50 is 123 nM.

And the IC50 [1]?
The IC50 was 6 nM.

What about the IC50 (human JAK1 (aa 850-1154)) of the same molecule?
The IC50 was over 1000 nM.

And the IC50 (JAK3 (aa 795-1124))?
Its IC50 is 100 to 1000 nM.

For O=C(Nc1cc(Nc2cnccn2)nc(-c2ccnc(N3CCNCC3)c2)c1)c1ccc(F)cc1 [Example 80, 4-Fluoro-N-[2'-piperazin-1-yl-6-(pyrazin-2-ylamino)-2,4'-bipyridin-4-yl]benzamide], which IC50 (JAK2 (aa 826-1132)) is on record?
The IC50 was under 100 nM.

What about the IC50 (LAD2 cells) of the same molecule?
Its IC50 is 290 nM.

What about the IC50 [1, 2] of the same molecule?
Its IC50 is 6 nM.

And the IC50 (human JAK1 (aa 850-1154))?
Its IC50 is over 1000 nM.

What about the IC50 (JAK3 (aa 795-1124)) of the same molecule?
Its IC50 is 100 to 1000 nM.

Which results are given for COc1cccc(CC(=O)Nc2cc(Nc3cnccn3)nc(-c3ccnc(N4CCNCC4)c3)c2)c1 [Example 78, 2-(3-Methoxyphenyl)-N-[2'-piperazin-1-yl-6-(pyrazin-2-ylamino)-2,4'-bipyridin-4-yl]acetamide]?
IC50 (JAK2 (aa 826-1132)): < 100 nM; IC50 (human JAK1 (aa 850-1154)): > 1000 nM; IC50 (JAK3 (aa 795-1124)): 100 to 1000 nM

O=C(O)c1ccc(C(=O)Nc2cc(Nc3cnccn3)nc(-c3ccnc(N4CCNCC4)c3)c2)cc1 [Example 79, 4-({[2'-Piperazin-1-yl-6-(pyrazin-2-ylamino)-2,4'-bipyridin-4-yl]amino}carbonyl) benzoic acid] was tested. Which IC50 (JAK2 (aa 826-1132)) did it give?
Its IC50 is under 100 nM.

And the IC50 (LAD2 cells)?
The IC50 was 140 nM.

And the IC50 [1]?
The IC50 was 8 nM.

And the IC50 (JAK3 (aa 795-1124))?
The IC50 was 100 to 1000 nM.

Which IC50 (JAK2 (aa 826-1132)) does the source give for O=C(O)C[C@H](Cc1ccccc1)C(=O)Nc1cc(Nc2cnccn2)nc(-c2ccnc(N3CCNCC3)c2)c1 [Example 100, (3S)-3-Benzyl-4-oxo-4-{[2'-piperazin-1-yl-6-(pyrazin-2-ylamino)-2,4'-bipyridin-4-yl]amino}butanoic acid] here?
Its IC50 is 100 to 1000 nM.

And the IC50 (human JAK1 (aa 850-1154))?
The IC50 was over 1000 nM.

What about the IC50 (JAK3 (aa 795-1124)) of the same molecule?
The IC50 was 100 to 1000 nM.
